Tested on: Plasmopara viticola
Assay: Activity against Peronospora of vines caused by Plasmopara viticola (persistence test on potted vines)
Format: in vivo
Details: individual active compound, vines "Müller-Thurgau", inoculated 3 days after spraying
Description: The active compounds were prepared separately or together as a stock solution comprising 0.25% of active compound in acetone or DMSO. 1% by weight of the emulsifier Uniperol® EM (wetting agent having emulsifying and dispersing action based on ethoxylated alkylphenols) was added, and the mixture was diluted with water to the desired concentration.
Evaluation is carried out by determining the infected leaf areas in percent. These percentages are converted into efficacies. The expected efficacies of the active compound mixtures are determined using Colby's formula [R. S. Colby, Weeds 15, 20-22 (1967)] and compared with the observed efficacies.
Colby's formula: E=x+y−x.y/100 • E expected efficacy, expressed in % of the untreated control, when using the mixture of the active compounds A and B at the concentrations a and b • x efficacy, expressed in % of the untreated control, when using active compound A at a concentration of a • y efficacy, expressed in % of the untreated control, when using active compound B at a concentration of b
The efficacy (E) is calculated as follows using Abbot's formula: E=(1−α/β)·100 • α corresponds to the fungal infection of the treated plants in % and • β corresponds to the fungal infection of the untreated (control) plants in %
An efficacy of 0 means that the infection level of the treated plants corresponds to that of the untreated control plants; an efficacy of 100 means that the treated plants were not infected.
Leaves of potted vines of the cultivar “Müller-Thurgau” were sprayed to runoff point with an aqueous suspension having the concentration of active compound stated below. To be able to assess the persistence of the substances, the plants were, after the spray coating had dried on, placed in a green house for 3 days. Only then were the leaves inoculated with an aqueous zoospore suspension of Plasmopara viticola. The vines were then initially placed in a water-vapor-saturated chamber at 24° C. for 48 hours and then in a greenhouse at 20-30° C. for 5 days. After this period of time, the plants were again placed in a moist chamber for 16 hours to promote sporangiophore eruption. The extent to which the infection had developed on the undersides of the leaves was then determined visually.

Structure (SMILES) | Efficacy in % of the untreated control (3.75 ppm in the spray liquor) | Efficacy in % of the untreated control (7.5 ppm in the spray liquor) | Efficacy in % of the untreated control (15 ppm in the spray liquor) | Efficacy in % of the untreated control (30 ppm in the spray liquor)
CCCOC(=O)NCCN(C)C [I, propyl (2-dimethylaminoethyl)carbamate] | 0 % of the untreated control | 0 % of the untreated control | 0 % of the untreated control | 0 % of the untreated control
N#Cc1sc2c(=O)c3ccccc3c(=O)c=2sc1C#N [II, dithianon] | – | – | – | 89 % of the untreated control
